The molecules below were run on HCT116 colorectal cancer cells (assay: Cisplatin sensitization assay (96 h cell viability MTS)). Settings: compound and Cisplatin added simultaneously, Cisplatin sensitization value.
Format: cell-based
In short: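 Compound and cisplatin added together as a full matrix of 2-fold serial dilutions from a top final concentration of 10 μM; cells incubated 96 h at 37° C, 5% CO2. Viability then read by MTS after 1 h further incubation; sensitization value reported in μM bins.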
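Also: Test-compound concentration that lowers the Cisplatin IC50 by a set fold.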

Compound	Cisplatin Sensitization Assay
CN1CCN(c2c(Cl)cncc2NC(=O)c2c(N)nn3cc(F)cnc23)CC1 [I-N-85, 2-amino-N-(5-chloro-4-(4-methylpiperazin-1-yl)pyridin-3-yl)-6-fluoropyrazolo[1,5-a]pyrimidine-3-carboxamide]	++ (Cisplatin sensitization value>0.02 μM but <0.2 μM)
Nc1nn2cc(Cl)cnc2c1C(=O)Nc1cnccc1N1CCC(N)CC1 [I-N-86, 2-amino-N-(4-(4-aminopiperidin-1-yl)pyridin-3-yl)-6-chloropyrazolo[1,5-a]pyrimidine-3-carboxamide]	+++ (Cisplatin sensitization value of <0.02 μM)
CNC1CCN(c2ccncc2NC(=O)c2c(N)nn3cc(Cl)cnc23)CC1 [I-N-87, 2-amino-6-chloro-N-(4-(4-(methylamino)piperidin-1-yl)pyridin-3-yl)pyrazolo[1,5-a]pyrimidine-3-carboxamide]	++ (Cisplatin sensitization value>0.02 μM but <0.2 μM)
Nc1nn2cc(Cl)cnc2c1C(=O)Nc1cnccc1N1CCNCC1 [I-N-88, 2-amino-6-chloro-N-(4-(piperazin-1-yl)pyridin-3-yl)pyrazolo[1,5-a]pyrimidine-3-carboxamide]	++ (Cisplatin sensitization value>0.02 μM but <0.2 μM)
N#CCc1cnc2c(C(=O)Nc3cnccc3N3CCNCC3)c(N)nn2c1 [I-N-89, 2-amino-6-(cyanomethyl)-N-(4-(piperazin-1-yl)pyridin-3-yl)pyrazolo[1,5-a]pyrimidine-3-carboxamide]	++ (Cisplatin sensitization value>0.02 μM but <0.2 μM)
N#CCc1cnc2c(C(=O)Nc3cnccc3N3CCOC(CN)C3)c(N)nn2c1 (centres unmarked) [I-N-90, 2-amino-N-(4-(2-(aminomethyl)morpholino)pyridin-3-yl)-6-(cyanomethyl)pyrazolo[1,5-a]pyrimidine-3-carboxamide]	+ (Cisplatin sensitization value>0.2 μM but <5 μM)
NCC1CCN(c2ccncc2NC(=O)c2c(N)nn3cc(Cl)cnc23)CC1 [I-N-91, 2-amino-N-(4-(4-(aminomethyl)piperidin-1-yl)pyridin-3-yl)-6-chloropyrazolo[1,5-a]pyrimidine-3-carboxamide]	++ (Cisplatin sensitization value>0.02 μM but <0.2 μM)
Nc1nn2cc(F)cnc2c1C(=O)Nc1cncc(F)c1N1CCC(C(=O)O)CC1 [I-N-92, 1-(3-(2-amino-6-fluoropyrazolo[1,5-a]pyrimidine-3-carboxamido)-5-fluoropyridin-4-yl)piperidine-4-carboxylic acid]	+ (Cisplatin sensitization value>0.2 μM but <5 μM)
CN(C)C1CN(C2CCN(c3ccncc3NC(=O)c3c(N)nn4cc(Cl)cnc34)CC2)C1 [I-N-94, 2-amino-6-chloro-N-(4-(4-(3-(dimethylamino)azetidin-1-yl)piperidin-1-yl)pyridin-3-yl)pyrazolo[1,5-a]pyrimidine-3-carboxamide]	+++ (Cisplatin sensitization value of <0.02 μM)
COC1CCN(C2CCN(c3ccncc3NC(=O)c3c(N)nn4cc(Cl)cnc34)CC2)C1 (centres unmarked) [I-N-95, 2-amino-6-chloro-N-(4-(4-(3-methoxypyrrolidin-1-yl)piperidin-1-yl)pyridin-3-yl)pyrazolo[1,5-a]pyrimidine-3-carboxamide]	++ (Cisplatin sensitization value>0.02 μM but <0.2 μM)
CN1CCN(C2CCN(c3ccncc3NC(=O)c3c(N)nn4cc(Cl)cnc34)CC2)CC1 [I-N-97, 2-amino-6-chloro-N-(4-(4-(4-methylpiperazin-1-yl)piperidin-1-yl)pyridin-3-yl)pyrazolo[1,5-a]pyrimidine-3-carboxamide]	+++ (Cisplatin sensitization value of <0.02 μM)
Nc1nn2cc(Cl)cnc2c1C(=O)Nc1cnccc1N1CCC(N2CC[C@@H](F)C2)CC1 [I-N-98, (R)-2-amino-6-chloro-N-(4-(4-(3-fluoropyrrolidin-1-yl)piperidin-1-yl)pyridin-3-yl)pyrazolo[1,5-a]pyrimidine-3-carboxamide]	+++ (Cisplatin sensitization value of <0.02 μM)
Nc1nn2cc(Cl)cnc2c1C(=O)Nc1cnccc1N1CCC(N2CCC3(COC3)C2)CC1 [I-N-99, N-(4-(4-(2-oxa-6-azaspiro[3.4]octan-6-yl)piperidin-1-yl)pyridin-3-yl)-2-amino-6-chloropyrazolo[1,5-a]pyrimidine-3-carboxamide]	+++ (Cisplatin sensitization value of <0.02 μM)
Nc1nn2cc(Cl)cnc2c1C(=O)Nc1cnccc1N1CCC(N2CC[S+]([O-])CC2)CC1 [I-N-100, 2-amino-6-chloro-N-(4-(4-(1-oxidothiomorpholino)piperidin-1-yl)pyridin-3-yl)pyrazolo[1,5-a]pyrimidine-3-carboxamide]	++ (Cisplatin sensitization value>0.02 μM but <0.2 μM)
Nc1nn2cc(Cl)cnc2c1C(=O)Nc1cnccc1N1CCC(N2CCn3cncc3C2)CC1 [I-N-101, 2-amino-6-chloro-N-(4-(4-(5,6-dihydroimidazo[1,5-a]pyrazin-7(8H)-yl)piperidin-1-yl)pyridin-3-yl)pyrazolo[1,5-a]pyrimidine-3-carboxamide]	++ (Cisplatin sensitization value>0.02 μM but <0.2 μM)
Nc1nn2cc(Cl)cnc2c1C(=O)Nc1cnccc1N1CCC(N2CCn3ccnc3C2)CC1 [I-N-102, 2-amino-6-chloro-N-(4-(4-(5,6-dihydroimidazo[1,2-a]pyrazin-7(8H)-yl)piperidin-1-yl)pyridin-3-yl)pyrazolo[1,5-a]pyrimidine-3-carboxamide]	++ (Cisplatin sensitization value>0.02 μM but <0.2 μM)
Nc1nn2cc(Cl)cnc2c1C(=O)Nc1cnccc1N1CCC(N2CC[C@H](F)C2)CC1 [I-N-103, (S)-2-amino-6-chloro-N-(4-(4-(3-fluoropyrrolidin-1-yl)piperidin-1-yl)pyridin-3-yl)pyrazolo[1,5-a]pyrimidine-3-carboxamide]	+++ (Cisplatin sensitization value of <0.02 μM)
Nc1nn2cc(Cl)cnc2c1C(=O)Nc1cnccc1N1CCC(N2CCOCC2)CC1 [I-N-104, 2-amino-6-chloro-N-(4-(4-morpholinopiperidin-1-yl)pyridin-3-yl)pyrazolo[1,5-a]pyrimidine-3-carboxamide]	+++ (Cisplatin sensitization value of <0.02 μM)
Nc1nn2cc(Cl)cnc2c1C(=O)Nc1cnccc1N1CCC(N2CCCC2)CC1 [I-N-105, 2-amino-6-chloro-N-(4-(4-(pyrrolidin-1-yl)piperidin-1-yl)pyridin-3-yl)pyrazolo[1,5-a]pyrimidine-3-carboxamide]	+++ (Cisplatin sensitization value of <0.02 μM)
CN(C)C1CCN(C2CCN(c3ccncc3NC(=O)c3c(N)nn4cc(Cl)cnc34)CC2)C1 (centres unmarked) [I-N-106, 2-amino-6-chloro-N-(4-(4-(3-(dimethylamino)pyrrolidin-1-yl)piperidin-1-yl)pyridin-3-yl)pyrazolo[1,5-a]pyrimidine-3-carboxamide]	+++ (Cisplatin sensitization value of <0.02 μM)
COC1CN(C2CCN(c3ccncc3NC(=O)c3c(N)nn4cc(Cl)cnc34)CC2)C1 [I-N-107, 2-amino-6-chloro-N-(4-(4-(3-methoxyazetidin-1-yl)piperidin-1-yl)pyridin-3-yl)pyrazolo[1,5-a]pyrimidine-3-carboxamide]	+++ (Cisplatin sensitization value of <0.02 μM)
Nc1nn2cc(Cl)cnc2c1C(=O)Nc1cnccc1N1CCC(N2CC(F)(F)C2)CC1 [I-N-108, 2-amino-6-chloro-N-(4-(4-(3,3-difluoroazetidin-1-yl)piperidin-1-yl)pyridin-3-yl)pyrazolo[1,5-a]pyrimidine-3-carboxamide]	+++ (Cisplatin sensitization value of <0.02 μM)
Nc1nn2cc(Cl)cnc2c1C(=O)Nc1cnccc1N1CCC(N2CCC23COC3)CC1 [I-N-109, N-(4-(4-(6-oxa-1-azaspiro[3.3]heptan-1-yl)piperidin-1-yl)pyridin-3-yl)-2-amino-6-chloropyrazolo[1,5-a]pyrimidine-3-carboxamide]	+++ (Cisplatin sensitization value of <0.02 μM)
CN1CCN(c2c(NC(=O)c3c(N)nn4cc(F)cnc34)cncc2C(F)F)CC1 [I-N-111, 2-amino-N-(5-(difluoromethyl)-4-(4-methylpiperazin-1-yl)pyridin-3-yl)-6-fluoropyrazolo[1,5-a]pyrimidine-3-carboxamide]	++ (Cisplatin sensitization value>0.02 μM but <0.2 μM)
Nc1nn2cc(F)cnc2c1C(=O)Nc1cnccc1N1CCN(C2COC2)C2CC21 (centres unmarked) [I-N-112, 2-amino-6-fluoro-N-(4-(5-(oxetan-3-yl)-2,5-diazabicyclo[4.1.0]heptan-2-yl)pyridin-3-yl)pyrazolo[1,5-a]pyrimidine-3-carboxamide]	+ (Cisplatin sensitization value>0.2 μM but <5 μM)
CN1CCN(c2c(C#N)cncc2NC(=O)c2c(N)nn3cc(F)cnc23)CC1 [I-N-113, 2-amino-N-(5-cyano-4-(4-methylpiperazin-1-yl)pyridin-3-yl)-6-fluoropyrazolo[1,5-a]pyrimidine-3-carboxamide]	+ (Cisplatin sensitization value>0.2 μM but <5 μM)
Nc1nn2cc(F)cnc2c1C(=O)Nc1cnccc1N1CCN2CCOC[C@@H]2C1 [I-N-115, (S)-2-amino-6-fluoro-N-(4-(hexahydropyrazino[2,1-c][1,4]oxazin-8(1H)-yl)pyridin-3-yl)pyrazolo[1,5-a]pyrimidine-3-carboxamide]	+++ (Cisplatin sensitization value of <0.02 μM)
Nc1nn2cc(F)cnc2c1C(=O)Nc1cnccc1N1CCN2CCOC[C@H]2C1 [I-N-116, (R)-2-amino-6-fluoro-N-(4-(hexahydropyrazino[2,1-c][1,4]oxazin-8(1H)-yl)pyridin-3-yl)pyrazolo[1,5-a]pyrimidine-3-carboxamide]	++ (Cisplatin sensitization value>0.02 μM but <0.2 μM)
Nc1nn2cc(Cl)cnc2c1C(=O)Nc1cncc(F)c1N1CCN(C2COC2)CC1 [I-N-117, 2-amino-6-chloro-N-(5-fluoro-4-(4-(oxetan-3-yl)piperazin-1-yl)pyridin-3-yl)pyrazolo[1,5-a]pyrimidine-3-carboxamide]	+++ (Cisplatin sensitization value of <0.02 μM)
